These results are taken from patent publication US20080051456A1, “Glycine Reuptake Inhibitors for Treatment of Drug Dependence” (priority 2005, published 2008).

The target in data set [1] is T1, GlyT2 protein (Homo sapiens, UniProt Q9Y345).
T1 sequence (Q9Y345 1-797): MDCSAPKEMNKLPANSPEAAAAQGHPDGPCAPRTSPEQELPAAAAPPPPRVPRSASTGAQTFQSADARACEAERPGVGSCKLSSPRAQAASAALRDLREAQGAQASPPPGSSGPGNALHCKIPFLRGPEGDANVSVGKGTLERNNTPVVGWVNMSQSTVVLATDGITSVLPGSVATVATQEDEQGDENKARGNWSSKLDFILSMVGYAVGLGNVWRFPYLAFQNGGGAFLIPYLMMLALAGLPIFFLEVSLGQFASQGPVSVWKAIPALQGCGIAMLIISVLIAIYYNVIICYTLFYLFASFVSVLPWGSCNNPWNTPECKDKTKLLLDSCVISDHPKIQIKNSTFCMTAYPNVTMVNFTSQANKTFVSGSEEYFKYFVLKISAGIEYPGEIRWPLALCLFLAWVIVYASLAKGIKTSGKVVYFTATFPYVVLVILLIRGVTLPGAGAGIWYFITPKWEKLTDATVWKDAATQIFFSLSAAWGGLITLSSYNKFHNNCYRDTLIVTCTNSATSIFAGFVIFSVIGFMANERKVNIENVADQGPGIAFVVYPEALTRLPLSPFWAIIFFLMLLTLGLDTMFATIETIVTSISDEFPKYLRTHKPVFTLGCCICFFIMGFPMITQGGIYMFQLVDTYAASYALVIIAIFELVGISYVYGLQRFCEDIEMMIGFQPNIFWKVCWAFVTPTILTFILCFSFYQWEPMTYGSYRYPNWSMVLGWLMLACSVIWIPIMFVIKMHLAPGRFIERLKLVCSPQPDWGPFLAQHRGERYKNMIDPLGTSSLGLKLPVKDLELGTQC
The conditions noted are these: relative to main action on GlyT1; cited from earlier work.

For data set [2], the system named is striatal extracellular glycine levels. The conditions noted are these: 6 mg/kg i.p., rat approx. 500 g; stated as expected; cited from earlier work.
Data set [3] deals with ethanol high preferring male Wistar rats. Description: Limited access free choice ethanol (6% v/v) / water drinking in ethanol high preferring rats.
Method: Male adult Wistar rats weighing 250-300 g (approx. 50 days old) were supplied by Beekay (Stockholm, Sweden). The animals were housed in groups of four at a constant cage temperature (25° C.) and humidity (65° C.). The animals were allowed to adapt for one week to the novel environment before any experiment (Screening for ethanol preference) was performed. They were kept under regular light-dark conditions (light on at 07:00 a.m. and off at 19:00 p.m.) with free access to standard rat feed (Beekay feed) and tap water.
Rats had continuous access to a bottle of ethanol solution in addition to the water bottle. […] The animals were subsequently housed individually in plastic cages. They had continuous access to two bottles containing either tap water or 6% ethanol solution. […] Water and ethanol intake were measured over a 6-7-week period. The amount (g) of ethanol solution consumed, in percent of total fluid intake (g), was used as an index of ethanol preference. Rats were classified as low-(<20% ethanol), medium (20%-60% ethanol), or high-(>60% ethanol) preferring based on their ethanol preference.
Ethanol (AB Svensk sprit) was dissolved (2-4-6% v/v) with regular tap water and presented in regular plastic 300 ml bottles. […] NaCl (0.9%) was used as vehicle.
To adapt to the experimental procedure, approx. 80 days old ethanol high preferring male Wistar rats were limited to drink both ethanol (6% v/v) and water for only three hours/day during one week, so called limited access (limited access) drinking. Thereafter, daily MTHMPNMglycine or vehicle administration started. MTHMPNMglycine or vehicle was injected i.p. and the rats were allowed to rest for approx. 40 min after which they were presented a choice between ethanol and water and allowed to drink for 3 hours. In the first experiment rats were challenged with MTHMPNMglycine (6 mg/kg) or vehicle for two weeks and alcohol and water intake were monitored. The experiment was preceded and ended by a limited access period.
Again the rats were treated with MTHMPNMglycine (6 mg/kg) or vehicle for 13 days. In addition, the rats were thereafter exposed to a two-week period of alcohol deprivation (limited access), during which they were allowed to drink only water 3 hours per day. After the limited access period the rats were again challenged with MTHMPNMglycine or vehicle and re-exposed to ethanol for an additional time-period of 13 days. […] The rats were presented to the water and ethanol (6% v/v) bottles approx. 40 minutes after drug administration.
The ethanol and water consumption data were statistically analysed using Analysis of variance (ANOVA) for repeated measures followed by post hoc analysis by means of Fisher's Protected Least Significant Difference (PLSD) test. Paired t-test was used for dependent comparisons between values obtained at different time-points. All values are expressed as means ±SEM. A probability value (P) less than 0.05 was considered statistically significant.
A new set of male ethanol high-preferring Wistar rats were injected i.p. with either MTHMPNMglycine or vehicle. Approx. 40 minutes after injection all rats were exposed to a free choice between ethanol (6% v/v) and water for 3 hours. First all rats received MTHMPNMglycine (6 mg/kg) or vehicle daily during 13 days.
For data set [4] the following is noted: oral administration.
[5] abbreviates: 10 mg/kg, dose-finding pilot experiments.

Each structure is given as a SMILES string. Several values for one entry are separate records, joined by “and”; a condition that tells them apart may be missing. Equal entries are not always repeated.

Regarding `CCCOc1ccc(C2=CC3(CCN(CC(=O)O)CC3)Oc3ccccc32)cc1F` [FPPSBPAA, 4-[3-fluoro-4-propoxyphenyl]-spiro[2H-1-benzopyran-2,4′-piperidine]-1′-acetic acid], the “action on the GlyT2 protein” value in data set [1] is on record as “negligible action”.

For the compound `COc1ccc2c(c1)CC[C@H](CN(C)CC(=O)O)[C@@H]2c1ccccc1` [MTHMPNMglycine], the “increase of striatal extracellular glycine levels” value in data set [2] is 50-80% and 50-70%. Further, the “total fluid intake vs vehicle” value is on record as “significantly reduced” in data set [3] (Experiment 1, 6 mg/kg i.p. daily, day 4-14, group effect p=0.0004, groups also differed on day 1-3); “significantly lowered” in data set [3] (Experiment 2, 6 mg/kg i.p., after four days of treatment, day 8-16, group effect p<0.0001); “no difference” in data set [3] (Experiment 2, after the alcohol deprivation (limited access) period). The “ethanol intake vs vehicle” value is reported as “significantly reduced” in data set [3] (Experiment 1, 6 mg/kg i.p. daily, day 4-14, group effect p=0.0125); “difference between the groups was reduced” in data set [3] (Experiment 2, 3 mg/kg i.p., day 24-27, group effect p=0.2973); “even more pronounced” in data set [3] (Experiment 2, 6 mg/kg i.p., after one week of treatment, day 11-17, group effect p=0.0001); “remained significantly reduced” in data set [3] (Experiment 2, 6 mg/kg i.p., after two weeks of alcohol deprivation, day 17-23, group effect p=0.0348); “significantly reduced” in data set [3] (Experiment 2, 6 mg/kg i.p., first 6 days of treatment, day 4-10, group effect p=0.0008). The “ethanol preference vs vehicle” value in data set [3] (Experiment 1, 6 mg/kg i.p. daily, day 4-14, group effect p=0.1899) is given as “no group effect”; in data set [3] (Experiment 2, 3 mg/kg i.p., day 24-27, group effect p=0.1555) it was “appeared to decrease the difference between the groups”; in data set [3] (Experiment 2, 6 mg/kg i.p., after approx. one week, day 11-16, group effect p<0.0001), “significant decrease”; in data set [3] (Experiment 2, 6 mg/kg i.p., after two weeks of alcohol deprivation, day 17-23, group effect p=0.0572) it was “remained reduced, although not significantly”; in data set [3] (Experiment 2, 6 mg/kg i.p., first 6 days, day 4-10, group effect p=0.1300), “no significant difference”. Also, the “water intake vs vehicle” value in data set [3] (Experiment 1, 6 mg/kg i.p. daily, day 4-14, group effect p=0.8713) was “no difference”; in data set [3] (Experiment 2, 6 mg/kg i.p., after alcohol deprivation, day 17-23, group effect p=0.0659) it was “tendency to increase their water intake”; in data set [3] (Experiment 2, 6 mg/kg i.p., first part of the experiment (before alcohol deprivation)) it was “not significantly different”. The “ethanol preference, difference vs vehicle” value in data set [3] (Experiment 2, 1.5 mg/kg i.p., day 28-29, group effect p=0.2117) is “totally abolished”. Also, the “ethanol intake, difference vs vehicle” value in data set [3] (Experiment 2, 1.5 mg/kg i.p., day 28-29, group effect p=0.8614) is recorded as “totally abolished”. For the same compound, the “treatment time after which the ethanol intake reducing effect was most pronounced” value in data set [3] (Experiment 2, 6 mg/kg i.p.) lay in the range of 4 to 6 days. The “total fluid intake after vs before reintroducing ethanol choice (within group)” value in data set [3] (Experiment 2, 6 mg/kg i.p., day 14 vs. day 19, paired t-test p<0.0001) was “significantly increased”. Also, the “ethanol intake after vs before alcohol deprivation period (within group)” value in data set [3] (Experiment 2, 6 mg/kg i.p., day 14 vs. day 19, paired t-test p=0.0135) is “significantly increased”. In data set [3] (Experiment 2, 6 mg/kg i.p., day 14 vs. day 19, paired t-test p=0.0188), the “water intake after vs before alcohol deprivation period (within group)” value is reported as “significantly increased their water intake”. Besides, the “action on the GlyT2 protein” value in data set [1] is “negligible action”. Besides, the “duration of behavioral changes” value under setting [5] was in the range of 10 to 15 min. Also, the “incidence of behavioral changes” value under setting [5] is recorded as “one out of ten”. Besides, where the note is “1.5-6 mg/kg i.p., rats”, the “gross behavior at the doses used in the study” value is “behaviorally unaffected”. In addition, where the note is “during the limited access/experimental time”, the “mean body weight vs vehicle” value was “significant lowered”. Moreover, in data set [4], the “oral dose that induced visible behavioral changes” value is recorded as not below 13.5 mg/kg.
